We go through one molecule from patent US20180311238A1, “Selective Agonist Of a6 Containing nAChRs” (Saniona A/S, priority 2017, published 2018).

One experiment deals with T1, α7 (Homo sapiens, UniProt P36544).
T1 construct: expressed in transfected cells; host or cells: Xenopus laevis oocytes injected with cRNA
Kind of experiment: Oocyte two-electrode voltage-clamp electrophysiology, α7. It counts as cell-based. Conditions: Xenopus laevis oocytes, peak currents. The method, then: (§1) Two-electrode voltage-clamp electrophysiology recordings were done in Xenopus laevis oocytes injected with approximately 25 ng cRNA. After injection, oocytes were incubated at 17° C. for 2-3 days. During measurements, an oocyte was placed in a custom designed recording chamber where compound solutions are added directly to the oocyte via a glass capillary. Compound solutions were prepared on the day of measurement and applied to oocytes with a flowrate of 2.0 ml/min. All datasets were baseline subtracted and responses to individual applications were read as peak current amplitudes. Concentration response relationships describing compound effect at a fixed acetylcholine concentration were fitted to a monophasic Hill-equation. Potency (EC50) and efficacy values (fitted maximal current relative to maximal current of acetylcholine).
On the technique in general: Two-electrode voltage clamp is typically applied to oocytes expressing channels or transporters.

Another experiment deals with α4β2 cHS/cLS receptors. Briefly: Oocyte two-electrode voltage-clamp electrophysiology, α4β2. It counts as cell-based. The note with it: Xenopus laevis oocytes. Here is the method: as §1
Experiment [1] addresses T2, nAChRs of the α4β2 subtype (Rattus norvegicus, UniProt P09483+P12390).
T2 construct: from tissue; host or cells: rat cerebral cortex membranes
Kind of experiment: In vitro inhibition of 3H-cytisine binding, rat cortex. Conditions: ligand 3H-cytisine. Here is the method:
The predominant subtype with high affinity for nicotine is comprised of α4 and β2 subunits. Here, the nicotine agonist ^3H-cytisine is used to selectively label nAChRs of the α4β2 subtype.
Preparations were performed at 0-4° C. Cerebral cortices from male Wistar rats (150-250 g) were homogenized for 20 sec in 15 ml Tris-HCl (50 mM, pH 7.4) containing 120 mM NaCl, 5 mM KCl, 1 mM MgCl2 and 2.5 mM CaCl2 using an Ultra-Turrax homogenizer. The homogenate was centrifuged at 27,000×g for 10 min. The supernatant was discarded and the pellet is re-suspended in fresh buffer and centrifuged a second time. The final pellet was re-suspended in fresh buffer (35 ml per g of original tissue) and used for binding assays.
Aliquots of 500 μl homogenate were added to 25 μl of test solution and 25 μl of ^3H-cytisine (1 nM, final concentration), mixed and incubated for 90 min at 0-4° C. Non-specific binding (5-10% of total binding) was determined using 100 μM (−)-nicotine. […]
Binding was terminated by rapid filtration onto Whatman GF/B glass fibre filters using a Brandel Cell Harvester, followed by seven washes with 2 ml ice-cold buffer. The amount of radioactivity on the filters was determined by conventional liquid scintillation counting using a Tri-Carb™ counter (PerkinElmer Life and Analytical Sciences).
Specific binding was calculated as total binding minus non-specific binding.

Experiment [2] has as its system reserpine-induced tremors. Kind of experiment: Reserpine-induced tremors in rats (tremor monitor power spectra). It is filed as in vivo, rat. Conditions: reserpine 1 mg/kg i.v.; compound 0.1 and 1.0 mg/kg s.c.; L-DOPA 100 mg/kg i.p. + benserazide. An excerpt: Parkinson's disease is associated with severe dopamine deficiency caused by neurodegeneration of dopaminergic cell bodies residing in Substantia Nigra pars compacta. As alpha6 nAChRs are enriched in the nigrostriatal dopamine pathway, activating this receptor may ameliorate symptoms in nigro-striatal dopamine deficiency models. Reserpine injections to rodents result in depletion of monoamines in the nigro-striatal dopamine pathway, resulting in catalepsy and tremors. Both behaviours can be quantified using dedicated tremor boxes.
Six groups of male Sprague Dawley rats (250-300 grams) were subjected to the following treatment schedules, and effects on power spectra, assessed in automated tremor monitors were evaluated for 30 minutes: • Vehicle+vehicle • Vehicle+reserpine (1 mg/kg) • 9-Methyl-3-pyridin-3-yl-3,9-diaza-bicyclo[3.3.1]nonane (0.1 mg/kg)+reserpine (1 mg/kg) • 9-Methyl-3-pyridin-3-yl-3,9-diaza-bicyclo[3.3.1]nonane (1.0 mg/kg)+reserpine (1 mg/kg) • L-DOPA (100 mg/kg)+reserpine (1 mg/kg) • 9-Methyl-3-pyridin-3-yl-3,9-diaza-bicyclo[3.3.1]nonane (1.0 mg/kg)+L-DOPA (100 mg/kg)+reserpine (1 mg/kg)
Reserpine was pre-treated i.v. 60 minutes prior to test start in a dose volume of 2 ml/kg. 9-Methyl-3-pyridin-3-yl-3,9-diaza-bicyclo[3.3.1]nonane was pre-treated s.c. 45 minutes prior to test start in a dose volume of 1 ml/kg. The dose of 9-methyl-3-pyridin-3-yl-3,9-diaza-bicyclo[3.3.1]nonane was based on 3H-epibatidin displacement studies showing half maximal displacement of specific binding of 3H-epibatidin in doses equaling 0.15 mg/kg in rats. L-DOPA was pre-treated i.p. 30 minutes prior to test start in a dose volume of 5 ml/kg. […] All animals dosed with L-DOPA was also dosed with the peripherally acting decarboxylase inhibitor Benserazide to prevent the peripheral break down of L-DOPA (benserazide: 50 mg/kg, s.c., 30 min. prior to test start in a dose volume of 1 ml/kg).

The term EC50 denotes the concentration needed to bring the measured effect to its halfway point. A low value points to higher potency in that assay. The Ki is the equilibrium dissociation constant of an inhibitor or competing ligand from its target.

T1 sequence (P36544 23-502): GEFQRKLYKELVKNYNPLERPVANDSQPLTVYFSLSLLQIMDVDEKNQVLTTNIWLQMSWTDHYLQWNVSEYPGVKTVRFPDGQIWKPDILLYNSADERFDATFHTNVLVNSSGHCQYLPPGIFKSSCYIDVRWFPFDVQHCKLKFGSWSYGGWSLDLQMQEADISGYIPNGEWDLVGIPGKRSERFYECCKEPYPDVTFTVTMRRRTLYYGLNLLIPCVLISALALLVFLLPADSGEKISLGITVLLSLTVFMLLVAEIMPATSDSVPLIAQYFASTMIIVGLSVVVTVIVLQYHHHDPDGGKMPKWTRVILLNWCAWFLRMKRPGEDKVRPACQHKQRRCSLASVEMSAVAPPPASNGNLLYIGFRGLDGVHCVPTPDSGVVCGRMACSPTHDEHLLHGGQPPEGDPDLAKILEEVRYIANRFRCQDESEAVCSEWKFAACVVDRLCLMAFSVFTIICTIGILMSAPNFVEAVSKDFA
T2 sequence (P09483 31-630): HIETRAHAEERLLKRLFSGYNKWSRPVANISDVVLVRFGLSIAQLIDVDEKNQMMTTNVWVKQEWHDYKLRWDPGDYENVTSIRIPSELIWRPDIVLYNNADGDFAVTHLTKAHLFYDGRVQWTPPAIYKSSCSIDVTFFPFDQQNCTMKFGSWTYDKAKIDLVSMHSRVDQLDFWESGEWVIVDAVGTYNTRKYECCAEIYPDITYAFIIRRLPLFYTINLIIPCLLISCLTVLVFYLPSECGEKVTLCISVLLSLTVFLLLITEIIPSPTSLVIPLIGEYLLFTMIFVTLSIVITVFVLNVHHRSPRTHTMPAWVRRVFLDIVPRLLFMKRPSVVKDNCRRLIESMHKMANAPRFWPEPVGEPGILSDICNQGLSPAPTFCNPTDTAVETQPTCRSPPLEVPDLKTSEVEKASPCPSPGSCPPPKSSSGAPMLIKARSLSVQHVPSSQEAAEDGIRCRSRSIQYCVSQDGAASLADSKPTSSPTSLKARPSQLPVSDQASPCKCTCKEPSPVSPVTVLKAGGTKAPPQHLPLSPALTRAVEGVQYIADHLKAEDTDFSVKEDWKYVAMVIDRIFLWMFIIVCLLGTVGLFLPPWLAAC
T2 sequence (P12390 25-500): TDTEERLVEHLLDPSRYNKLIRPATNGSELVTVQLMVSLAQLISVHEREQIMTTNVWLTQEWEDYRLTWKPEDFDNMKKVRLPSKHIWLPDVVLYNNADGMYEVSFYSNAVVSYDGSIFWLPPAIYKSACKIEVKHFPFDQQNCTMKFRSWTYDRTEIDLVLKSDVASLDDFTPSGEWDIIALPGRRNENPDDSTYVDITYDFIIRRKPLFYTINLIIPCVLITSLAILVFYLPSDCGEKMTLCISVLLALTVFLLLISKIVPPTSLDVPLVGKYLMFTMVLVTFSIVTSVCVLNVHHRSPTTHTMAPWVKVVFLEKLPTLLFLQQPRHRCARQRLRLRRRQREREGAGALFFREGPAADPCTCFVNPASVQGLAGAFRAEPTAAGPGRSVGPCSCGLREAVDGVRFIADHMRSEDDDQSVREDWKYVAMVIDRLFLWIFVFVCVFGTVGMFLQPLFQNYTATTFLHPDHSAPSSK

The molecule `CN1C2CCCC1CN(c1cccnc1)C2` [9-methyl-3-pyridin-3-yl-3,9-diaza-bicyclo[3.3.1]nonane] yielded an EC50 on α7 of 13 µM. For the same molecule, in the experiment with α4β2 cHS/cLS receptors, the efficacy entry was “practically no efficacy”. This molecule yielded a Ki in experiment [1] of 0.0031 µM. In addition, in experiment [2], the “effect on reserpine-induced tremors, AUC 40-63 Hz” value is on record as “dose-related reversal of reserpine tremors reaching statistical significance at 1.0 mg/kg” and the “reversal of reserpine-induced reduction of low frequency movements (catalepsy), AUC 3-13 Hz” value is “Neither threshold dose of L-DOPA, nor 9-methyl-3-pyridin-3-yl-3,9-diaza-bicyclo[3.3.1]nonane or the combination of the two, was able to reverse this reduction”.
